Assay results: ChEMBL document CHEMBL4229543, “Squaramides as novel class I and IIB histone deacetylase inhibitors for topical treatment of cutaneous t-cell lymphoma” (Bioorg Med Chem Lett, 2018)
In brackets after ≈: the same amount, converted by molar mass.

Legend:
[1] = Clearance in human hepatocytes assessed per million cells at 1 uM after 5 to 90 mins by LC-MS/MS analysis; format: ADME, cell-based, Hepatocyte; conditions: read-out: CLH
Histone deacetylase 4 = Histone deacetylase 4 (Homo sapiens, UniProt P56524); experiment: Inhibition of human recombinant HDAC4 using fluorogenic HDAC substrate class 2a after 30 mins by fluorimetrc method
Chain of Histone deacetylase 4 (P56524 whole entry): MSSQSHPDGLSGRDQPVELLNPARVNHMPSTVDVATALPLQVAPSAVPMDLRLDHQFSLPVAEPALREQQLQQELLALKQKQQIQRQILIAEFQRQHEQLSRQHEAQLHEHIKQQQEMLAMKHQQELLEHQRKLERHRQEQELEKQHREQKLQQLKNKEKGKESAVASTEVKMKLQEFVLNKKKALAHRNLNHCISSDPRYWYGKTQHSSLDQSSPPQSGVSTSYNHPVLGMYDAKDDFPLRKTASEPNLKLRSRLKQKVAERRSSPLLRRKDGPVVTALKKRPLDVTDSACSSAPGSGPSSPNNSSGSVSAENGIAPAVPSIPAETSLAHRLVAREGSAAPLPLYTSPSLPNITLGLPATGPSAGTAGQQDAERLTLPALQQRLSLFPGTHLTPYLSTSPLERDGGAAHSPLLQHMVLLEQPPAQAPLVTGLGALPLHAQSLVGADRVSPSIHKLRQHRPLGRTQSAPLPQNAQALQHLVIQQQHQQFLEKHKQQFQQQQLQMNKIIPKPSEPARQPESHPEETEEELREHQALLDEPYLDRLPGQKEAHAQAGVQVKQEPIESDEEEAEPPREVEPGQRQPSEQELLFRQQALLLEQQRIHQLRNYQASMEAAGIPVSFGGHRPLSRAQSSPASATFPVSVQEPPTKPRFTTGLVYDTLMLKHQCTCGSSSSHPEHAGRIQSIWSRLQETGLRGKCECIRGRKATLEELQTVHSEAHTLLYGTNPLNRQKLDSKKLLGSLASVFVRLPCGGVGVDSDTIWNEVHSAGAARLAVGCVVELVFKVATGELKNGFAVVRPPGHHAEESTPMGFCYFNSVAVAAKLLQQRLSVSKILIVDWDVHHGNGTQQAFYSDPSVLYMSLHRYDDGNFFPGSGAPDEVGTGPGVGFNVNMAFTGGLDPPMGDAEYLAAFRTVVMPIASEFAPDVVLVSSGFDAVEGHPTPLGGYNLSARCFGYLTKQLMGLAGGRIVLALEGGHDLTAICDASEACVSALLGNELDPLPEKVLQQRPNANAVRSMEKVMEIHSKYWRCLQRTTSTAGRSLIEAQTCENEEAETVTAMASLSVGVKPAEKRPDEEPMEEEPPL

[2] = Solubility in PG/EtOH (96%) at 30 mg/mL after 24 hrs by UV-spectrometric method; format: physicochemical; conditions: PG/EtOH (96%)
Histone deacetylase 9 = Histone deacetylase 9 (Homo sapiens, UniProt Q9UKV0); experiment: Inhibition of human recombinant HDAC9 using fluorogenic HDAC substrate class 2a after 30 mins by fluorimetrc method
Chain of Histone deacetylase 9 (Q9UKV0 whole entry): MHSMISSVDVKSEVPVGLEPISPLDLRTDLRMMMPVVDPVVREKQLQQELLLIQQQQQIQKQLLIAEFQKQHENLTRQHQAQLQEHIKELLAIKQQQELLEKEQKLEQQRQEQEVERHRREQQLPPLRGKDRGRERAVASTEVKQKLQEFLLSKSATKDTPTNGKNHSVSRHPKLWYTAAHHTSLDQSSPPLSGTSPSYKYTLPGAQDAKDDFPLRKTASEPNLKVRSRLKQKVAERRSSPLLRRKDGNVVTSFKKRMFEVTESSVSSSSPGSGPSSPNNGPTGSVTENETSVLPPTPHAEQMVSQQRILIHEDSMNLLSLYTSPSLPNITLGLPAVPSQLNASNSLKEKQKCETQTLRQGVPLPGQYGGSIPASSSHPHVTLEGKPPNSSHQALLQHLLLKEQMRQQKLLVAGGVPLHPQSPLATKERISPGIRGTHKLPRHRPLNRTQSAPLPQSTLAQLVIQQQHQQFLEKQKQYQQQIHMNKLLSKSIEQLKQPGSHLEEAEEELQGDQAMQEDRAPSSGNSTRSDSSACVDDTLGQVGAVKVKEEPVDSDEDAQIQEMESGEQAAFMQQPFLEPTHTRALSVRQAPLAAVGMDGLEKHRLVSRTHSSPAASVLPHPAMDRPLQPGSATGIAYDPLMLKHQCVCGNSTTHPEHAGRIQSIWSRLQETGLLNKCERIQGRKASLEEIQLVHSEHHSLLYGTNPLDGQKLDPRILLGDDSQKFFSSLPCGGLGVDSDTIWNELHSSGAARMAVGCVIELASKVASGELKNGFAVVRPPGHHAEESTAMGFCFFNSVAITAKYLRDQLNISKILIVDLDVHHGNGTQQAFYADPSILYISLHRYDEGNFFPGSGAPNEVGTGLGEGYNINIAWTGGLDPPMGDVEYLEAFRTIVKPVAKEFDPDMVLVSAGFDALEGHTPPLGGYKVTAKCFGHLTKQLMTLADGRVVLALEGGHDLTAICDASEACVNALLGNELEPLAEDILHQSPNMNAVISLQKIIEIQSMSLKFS

[3] = molecular target: T1, NAD-dependent protein deacetylase sirtuin-1 (Homo sapiens, UniProt Q96EB6); experiment: Inhibition of human recombinant SIRT1 using fluorogenic HDAC substrate after 20 mins by fluorimetrc method
T1 sequence (Q96EB6 whole entry): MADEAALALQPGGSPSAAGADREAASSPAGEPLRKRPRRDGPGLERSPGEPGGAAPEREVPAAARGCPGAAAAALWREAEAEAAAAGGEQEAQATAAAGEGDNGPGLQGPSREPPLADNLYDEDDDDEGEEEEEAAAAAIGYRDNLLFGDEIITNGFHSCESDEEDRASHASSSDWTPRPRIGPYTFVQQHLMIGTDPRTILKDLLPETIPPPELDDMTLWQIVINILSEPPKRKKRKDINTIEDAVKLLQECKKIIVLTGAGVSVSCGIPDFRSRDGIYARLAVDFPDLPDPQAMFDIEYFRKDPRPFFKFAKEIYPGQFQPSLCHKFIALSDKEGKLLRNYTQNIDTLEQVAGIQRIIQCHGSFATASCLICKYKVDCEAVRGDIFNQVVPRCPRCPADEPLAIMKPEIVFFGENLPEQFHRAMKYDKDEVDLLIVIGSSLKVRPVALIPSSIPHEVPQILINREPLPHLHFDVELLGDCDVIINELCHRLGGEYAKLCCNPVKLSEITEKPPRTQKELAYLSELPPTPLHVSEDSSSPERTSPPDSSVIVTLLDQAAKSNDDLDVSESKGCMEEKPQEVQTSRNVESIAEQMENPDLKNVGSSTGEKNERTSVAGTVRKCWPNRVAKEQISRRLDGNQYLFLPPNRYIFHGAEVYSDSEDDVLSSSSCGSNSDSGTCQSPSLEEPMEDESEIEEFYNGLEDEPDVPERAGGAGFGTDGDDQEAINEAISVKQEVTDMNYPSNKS

[4] = molecular target: T2, NAD-dependent protein deacetylase sirtuin-7 (Homo sapiens, UniProt Q9NRC8); experiment: Inhibition of SIRT7 (unknown origin)
T2 sequence (Q9NRC8 whole entry): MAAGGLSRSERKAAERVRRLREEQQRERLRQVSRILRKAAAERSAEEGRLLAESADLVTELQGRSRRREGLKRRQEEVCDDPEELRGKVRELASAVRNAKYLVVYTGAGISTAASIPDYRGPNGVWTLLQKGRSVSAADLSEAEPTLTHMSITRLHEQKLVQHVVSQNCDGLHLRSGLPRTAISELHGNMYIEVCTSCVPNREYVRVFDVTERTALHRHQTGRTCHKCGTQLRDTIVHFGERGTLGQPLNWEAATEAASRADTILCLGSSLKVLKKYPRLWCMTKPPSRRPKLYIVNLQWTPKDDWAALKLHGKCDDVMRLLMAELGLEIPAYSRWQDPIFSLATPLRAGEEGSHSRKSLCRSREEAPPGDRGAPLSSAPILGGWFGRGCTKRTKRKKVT

Histone deacetylase 1 = Histone deacetylase 1 (Homo sapiens, UniProt Q13547); experiment: Inhibition of human recombinant HDAC1 using fluorogenic HDAC substrate after 15 mins by fluorimetrc method
Chain of Histone deacetylase 1 (Q13547 whole entry): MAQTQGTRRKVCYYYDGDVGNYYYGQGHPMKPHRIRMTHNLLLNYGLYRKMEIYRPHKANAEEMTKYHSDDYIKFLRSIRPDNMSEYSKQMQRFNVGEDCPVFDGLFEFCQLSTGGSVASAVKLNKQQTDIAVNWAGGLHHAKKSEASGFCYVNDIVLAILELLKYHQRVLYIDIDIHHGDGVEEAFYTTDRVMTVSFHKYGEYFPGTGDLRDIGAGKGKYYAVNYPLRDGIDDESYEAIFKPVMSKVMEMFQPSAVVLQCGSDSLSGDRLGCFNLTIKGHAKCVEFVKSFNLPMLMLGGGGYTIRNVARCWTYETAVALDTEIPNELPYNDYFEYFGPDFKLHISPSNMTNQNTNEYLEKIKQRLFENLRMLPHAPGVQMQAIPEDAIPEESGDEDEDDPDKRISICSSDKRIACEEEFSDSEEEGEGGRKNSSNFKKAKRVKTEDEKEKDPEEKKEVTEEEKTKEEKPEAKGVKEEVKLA

[5] = molecular target: T3, NAD-dependent protein deacetylase sirtuin-3, mitochondrial (Homo sapiens, UniProt Q9NTG7); experiment: Inhibition of human recombinant SIRT3 using fluoro-lysine sirtuin 2 deacetylase substrate after 45 mins by fluorimetrc method
T3 sequence (Q9NTG7 whole entry): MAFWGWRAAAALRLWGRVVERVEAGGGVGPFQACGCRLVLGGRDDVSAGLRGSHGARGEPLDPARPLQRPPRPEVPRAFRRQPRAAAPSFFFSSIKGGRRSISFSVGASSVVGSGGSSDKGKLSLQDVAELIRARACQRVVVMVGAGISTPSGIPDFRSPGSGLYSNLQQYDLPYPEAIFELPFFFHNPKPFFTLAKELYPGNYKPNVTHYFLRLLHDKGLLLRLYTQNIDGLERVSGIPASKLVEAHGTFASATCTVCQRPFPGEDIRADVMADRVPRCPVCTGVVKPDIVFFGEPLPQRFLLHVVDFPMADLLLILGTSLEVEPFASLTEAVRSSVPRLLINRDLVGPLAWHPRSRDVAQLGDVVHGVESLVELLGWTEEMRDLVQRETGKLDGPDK

[6] = molecular target: T4, Polyamine deacetylase HDAC10 (Homo sapiens, UniProt Q969S8); experiment: Inhibition of human recombinant HDAC10 using fluorogenic HDAC substrate after 45 mins by fluorimetrc method
T4 sequence (Q969S8 whole entry): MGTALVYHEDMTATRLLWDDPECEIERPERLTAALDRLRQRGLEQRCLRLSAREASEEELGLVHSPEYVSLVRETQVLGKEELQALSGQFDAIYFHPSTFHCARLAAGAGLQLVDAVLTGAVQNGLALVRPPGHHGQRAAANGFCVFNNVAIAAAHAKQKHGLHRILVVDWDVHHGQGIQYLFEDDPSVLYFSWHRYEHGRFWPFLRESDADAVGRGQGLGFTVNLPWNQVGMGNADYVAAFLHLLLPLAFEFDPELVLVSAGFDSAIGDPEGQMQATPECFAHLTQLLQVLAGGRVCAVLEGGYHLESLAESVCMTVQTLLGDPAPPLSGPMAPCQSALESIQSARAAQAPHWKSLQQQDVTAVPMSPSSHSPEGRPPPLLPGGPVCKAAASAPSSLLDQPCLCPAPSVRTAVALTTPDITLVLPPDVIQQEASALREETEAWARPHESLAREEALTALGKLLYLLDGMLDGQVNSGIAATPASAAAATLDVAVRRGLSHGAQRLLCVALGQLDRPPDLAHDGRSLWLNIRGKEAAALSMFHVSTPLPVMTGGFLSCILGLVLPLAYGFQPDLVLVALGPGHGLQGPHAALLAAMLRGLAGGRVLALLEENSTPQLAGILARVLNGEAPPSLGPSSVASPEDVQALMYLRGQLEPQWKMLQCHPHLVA

| hepatocyte CLint at 1 µM [1] [µL/min/1e6 cells] | Ki (Histone deacetylase 4) [µM] | solubility at 24 h [2] [mM] | Ki (Histone deacetylase 9) [µM] | Ki [3] [µM] | Ki [4] [µM] | Ki (Histone deacetylase 1) [µM] | Ki [5] [µM] | Ki [6] [µM] | Structure (SMILES) |
| --- | --- | --- | --- | --- | --- | --- | --- | --- | --- |
| < 4.7 | > 10 | 0.3 (≈ 0.104 mg/mL) | > 10 | > 10 | > 10 | 0.00034 | > 10 | 0.0012 | COc1ccc(Nc2c(NCCCCCC(=O)NO)c(=O)c2=O)cc1 |
| 29 | 3.4 | 30 (≈ 12.4 mg/mL) | > 10 | > 10 | > 10 | 0.001 | > 10 | 0.003 | CC(C)(CCCCC(=O)NO)Nc1c(Nc2ccc(C(F)(F)F)cc2)c(=O)c1=O |
| < 5 | > 10 | 39 (≈ 15.7 mg/mL) | > 10 | > 10 | > 10 | 0.048 | > 10 | 0.05 | CC(Nc1c(NCCCCCC(=O)NO)c(=O)c1=O)C12CC3CC(CC(C3)C1)C2 (configuration not stated) |
